What is called GI50 is the concentration at which growth is held to half of that of the control. Low readings indicate greater sensitivity of the cells, high ones lower sensitivity of the cells.

Data on 29 compounds can be found in US20260109707A1, “HETEROBIFUNCTIONAL COMPOUNDS AND METHODS OF TREATING DISEASE” (Halda Therapeutics OpCo. Inc., priority 2022, published 2026).

Assay [1] concerns T-Rex 293 cell line SC3 cells lacking increased expression of androgen receptor protein. The assay can be described thus: Cellular growth inhibition assay, T-Rex 293 SC3 cells without doxycycline (CellTiter-Glo, 72 hours). The assay is classed as cell-based. Conditions: T-Rex 293 cell line SC3 cells not exposed to doxycycline (lacking increased androgen receptor expression). The procedure: (§1) The following types of cells were prepared for this experiment: (i) a T-Rex 293 cell line having increased expression of androgen receptor protein due to exposure to doxycycline and (ii) a T-Rex 293 cell line lacking increased expression of androgen receptor protein. Ability of the test compounds to inhibit proliferation of the foregoing cell types was evaluated according to the procedures set forth below.
(§2) The doxycycline-inducible androgen receptor protein expressing cell line was established using the following protocol: T-Rex 293 cells were purchased from Invitrogen (Cat #R71007) and transfected using Lipofectamine 2000 with the wild-type androgen receptor protein sequence cloned into the pcDNA4/TO vector. Transfected cells were selected using 400 μg/mL Zeocin (Invitrogen Cat #R25001). Following selection, single clones were raised and maintained in Dulbecco's Modified Eagle Medium (DMEM) supplemented with 10% w/w Tetracycline-free fetal bovine serum (FBS) and 250 μg/mL Zeocin. Clones were analyzed for expression of androgen receptor protein in the presence and absence of 10 ng/mL doxycycline (Sigma Cat #D9891), and a single doxycycline-inducible clone (hereinafter “SC3”) was selected for use in downstream assays.
(§3) The SC3 cells were seeded on poly-D-lysine coated, black clear-bottom 384-well plates at 2500/well, in 25 μL Phenol Red Free Dulbecco's Modified Eagle Medium (DMEM) supplemented with 10% w/w charcoal-dextran treated fetal bovine serum (FBS) and 1% w/w pen-strep, with or without 10 ng/mL doxycycline. Pen-Strep is a commercially available mixture of penicillin G and streptomycin, which is used in mammalian cell culture media to prevent bacterial contamination. Phenol Red Free Dulbecco's Modified Eagle Medium (DMEM) supplemented with 10% w/w charcoal-dextran treated fetal bovine serum (FBS) and 1% w/w pen-strep, with or without 10 ng/mL doxycycline is herein referred to as Treatment Medium. Following seeding of cells in the plates, the plates were spun at 300×g for 30 seconds, then equilibrated to room temperature for 30 minutes, and then deposited in a humidified tissue culture incubator maintained at 37° C. with 5% CO2.
(§4) At 24 hours after seeding of the cells, dilutions of test compound were prepared in DMSO and dissolved in Treatment Medium, to achieve a final DMSO concentration of 0.5% w/w, thereby providing the Test Compound Solution. A 25 μL aliquot of the Test Compound Solution was added to cells in the well plates. An equal volume of a solution containing DMSO and Treatment Medium was used as a negative control. Following treatment of cells with Test Compound Solution or said equal volume of a solution containing DMSO and Treatment Medium, the plates were spun at 300×g for 30 seconds, and then left in an incubator for 72 hours.
(§5) At the end of the treatment duration, cell viability was quantified with CellTiter-Glo 2.0 reagent (Promega Cat #G9243). For this purpose, plates were equilibrated to room temperature for 30 minutes, and then 25 μL of CellTiter-Glo 2.0 reagent was added to cells in the plate wells. Plates were then agitated on a shaker for two minutes at 500 rpm and subsequently incubated at room temperature for 10 minutes. Following incubation, the plates were spun at 3000×g for 30 seconds, then sealed with an optical adhesive cover, and luminescence readings were measured with an EnVision Plate Reader.
(§6) Data was normalized using zero luminescence for baseline. A four-parameter non-linear regression curve fit was applied to dose-response data in GraphPad Prism data analysis software to determine the half-maximal growth inhibitory concentration (GI50) for each test compound.
In general terms: In ATP-based viability assays light output follows the ATP content of the culture.

The subject of assay [2] is T-Rex 293 cell line SC3 cells having increased expression of androgen receptor protein due to exposure to doxycycline. The assay can be described thus: Cellular growth inhibition assay, T-Rex 293 SC3 cells with doxycycline (CellTiter-Glo, 72 hours). In kind it is cell-based. Conditions: T-Rex 293 SC3 cells with increased androgen receptor expression due to doxycycline (10 ng/mL). The procedure:
as §1, §2, §3, §4, §5, §6

For `Cc1sc2c(c1C)C(c1ccc(N3CCCC(CNc4ncc(C(=O)NC5CCC(Oc6ccc(C#N)c(Cl)c6)CC5)cn4)C3)cc1)=NC(Cc1ncco1)c1nnc(C)n1-2` (mixture of isomers) [I-810], the GI50 in assay [1] is 500 to 1500 nM; in assay [2], under 500 nM. As to `Cc1sc2c(c1C)C(c1ccc(NCC3CN(c4ncc(C(=O)NC5CCC(Oc6ccc(C#N)c(Cl)c6)CC5)cn4)CCO3)cc1)=NC(Cc1ncco1)c1nnc(C)n1-2` (mixture of isomers) [I-814], the GI50 in assay [1] and in assay [2] was under 500 nM in each case. For the compound `Cc1sc2c(c1C)C(c1ccc(N3CC4CC3CN4c3ncc(C(=O)NC4CCC(Oc5ccc(C#N)c(Cl)c5)CC4)cn3)cc1)=NC(Cc1ncco1)c1nnc(C)n1-2` (mixture of isomers) [I-815], the 50% growth inhibitory concentration (GI50) in assay [1] and in assay [2] was under 500 nM throughout.

On to `Cc1sc2c(c1C)C(c1ccc(N3CCC4(CC3)CCN(c3ncc(C(=O)N[C@H]5CC[C@H](Oc6ccc(C#N)c(Cl)c6)CC5)cn3)C4)cc1)=NC(Cc1ncco1)c1nnc(C)n1-2` (mixture of isomers) [I-779], for which the GI50 in assay [1] and in assay [2] was under 500 nM each time. With `Cc1sc2c(c1C)C(c1ccc(N3CCN(C4CCN(c5ncc(C(=O)N[C@H]6CC[C@H](Oc7ccc(C#N)c(Cl)c7)CC6)cn5)C4)CC3)cc1)=NC(Cc1ncco1)c1nnc(C)n1-2` (mixture of isomers) [I-783], the GI50 in assay [1] and in assay [2] was under 500 nM each time. With `Cc1sc2c(c1C)C(c1ccc(C#CC3CC4(CCCN(c5ccc(C(=O)N[C@H]6CC[C@H](Oc7ccc(C#N)c(Cl)c7)CC6)nn5)C4)C3)cc1)=NC1(CC1)c1nnc(C)n1-2` (stereo partly drawn) [I-472], the GI50 in assay [1] was over 3000 nM; in assay [2] (72 h) it was under 500 nM. In assay [2] (72 h), `Cc1sc2c(c1C)C(c1ccc(N3CCC4(CCN(c5ccc(C(=O)N[C@H]6CC[C@H](Oc7ccc(C#N)c(Cl)c7)CC6)nn5)C4)C3)cc1)=N[C@@H](C)c1nnc(C)n1-2` (stereo partly drawn) [I-535] came in with a concentration for 50% growth inhibition (GI50) of under 500 nM. The compound `COC[C@@H]1N=C(c2ccc(C3CCC4(CC3)CCN(c3ccc(C(=O)N[C@H]5CC[C@H](Oc6ccc(C#N)c(Cl)c6)CC5)nn3)C4)cc2)c2c(sc(C)c2C)-n2c(C)nnc21` (stereo partly drawn) [I-602] displayed a GI50 in assay [1] (72 h) of under 500 nM. With `Cc1sc2c(c1C)C(c1ccc(CC3CC(OC4CCN(c5ccc(C(=O)NC6CCC(Oc7ccc(C#N)c(Cl)c7)CC6)nn5)CC4)C3)cc1)=NC(C)c1nnc(C)n1-2` (stereo not drawn) [I-603], the GI50 in assay [1] (72 h) and in assay [2] (72 h) was under 500 nM throughout. On to `COC[C@@H]1N=C(c2ccc(OC3CC4(CCCN(c5ccc(C(=O)N[C@H]6CC[C@H](Oc7ccc(C#N)c(Cl)c7)CC6)nn5)C4)C3)cc2)c2c(sc(C)c2C)-n2c(C)nnc21` (stereo partly drawn) [I-661], for which the GI50 in assay [2] (72 h) is under 500 nM.

Turning to `Cc1sc2c(c1C)C(c1ccc(N3C[C@@H]4CN(c5ccc(C(=O)N[C@H]6CC[C@H](Oc7ccc(C#N)c(Cl)c7)CC6)nn5)C[C@H]4C3)cc1)=N[C@@H](C)c1nnc(C)n1-2` [I-705], in assay [1] (72 h), the GI50 is under 500 nM. Take `Cc1sc2c(c1C)C(c1ccc(N[C@H]3CCN(c4ncc(C(=O)N[C@H]5CC[C@H](Oc6ccc(C#N)c(Cl)c6)CC5)cn4)C3)cc1)=NC(Cc1ncco1)c1nnc(C)n1-2` (stereo partly drawn) [I-773]: the GI50 in assay [1] (72 h) and in assay [2] (72 h) was 500 to 1500 nM each time.

On to `Cc1sc2c(c1C)C(c1ccc(NCCN3CCN(c4ncc(C(=O)N[C@H]5CC[C@H](Oc6ccc(C#N)c(Cl)c6)CC5)cn4)CC3)cc1)=NC(Cc1ncco1)c1nnc(C)n1-2` (stereo partly drawn) [I-774], for which the concentration for 50% growth inhibition (GI50) in assay [1] (72 h) and in assay [2] (72 h) was under 500 nM in each case.

Take `Cc1sc2c(c1C)C(c1ccc(N[C@H]3CC[C@@H](Nc4ncc(C(=O)N[C@H]5CC[C@H](Oc6ccc(C#N)c(Cl)c6)CC5)cn4)CC3)cc1)=NC(Cc1ncco1)c1nnc(C)n1-2` (stereo partly drawn) [I-775]: the figures for the 50% growth inhibitory concentration (GI50) in assay [1] (72 h) and in assay [2] (72 h) were over 3000 nM and under 500 nM, respectively. Consider `Cc1sc2c(c1C)C(c1ccc(N3CC[C@H](Nc4ncc(C(=O)N[C@H]5CC[C@H](Oc6ccc(C#N)c(Cl)c6)CC5)cn4)C3)cc1)=NC(Cc1ncco1)c1nnc(C)n1-2` (stereo partly drawn) [I-776], for which the GI50 in assay [1] (72 h) and in assay [2] (72 h) was under 500 nM each time.

With `Cc1sc2c(c1C)C(c1ccc(N3CC4(CCN(c5ncc(C(=O)N[C@H]6CC[C@H](Oc7ccc(C#N)c(Cl)c7)CC6)cn5)CC4)C3)cc1)=NC(Cc1ncco1)c1nnc(C)n1-2` (stereo partly drawn) [I-777], the GI50 in assay [1] (72 h) and in assay [2] (72 h) was under 500 nM throughout.

For the compound `Cc1sc2c(c1C)C(c1ccc(N3CCC(C)(Nc4ncc(C(=O)N[C@H]5CC[C@H](Oc6ccc(C#N)c(Cl)c6)CC5)cn4)CC3)cc1)=NC(Cc1ncco1)c1nnc(C)n1-2` (stereo partly drawn) [I-778], the concentration for 50% growth inhibition (GI50) in assay [1] (72 h) and in assay [2] (72 h) was under 500 nM each time.

With `Cc1sc2c(c1C)C(c1ccc(N3CC(N4CCN(c5ncc(C(=O)N[C@H]6CC[C@H](Oc7ccc(C#N)c(Cl)c7)CC6)cn5)CC4)C3)cc1)=NC(Cc1ncco1)c1nnc(C)n1-2` (stereo partly drawn) [I-780], the 50% growth inhibitory concentration (GI50) in assay [1] (72 h) and in assay [2] (72 h) was under 500 nM in each case. With `Cc1sc2c(c1C)C(c1ccc(N[C@H]3CCN(c4ncc(C(=O)N[C@H]5CC[C@H](Oc6ccc(C#N)c(Cl)c6)CC5)cn4)C[C@@H]3F)cc1)=NC(Cc1ncco1)c1nnc(C)n1-2` (stereo partly drawn) [I-781], the GI50 in assay [1] (72 h) and in assay [2] (72 h) was under 500 nM each time. With `Cc1sc2c(c1C)C(c1ccc(N3[C@@H]4CC[C@H]3C[C@@H](Nc3ncc(C(=O)N[C@H]5CC[C@H](Oc6ccc(C#N)c(Cl)c6)CC5)cn3)C4)cc1)=NC(Cc1ncco1)c1nnc(C)n1-2` (stereo partly drawn) [I-782], the figures for the 50% growth inhibitory concentration (GI50) in assay [1] and in assay [2] were over 3000 nM and under 500 nM, respectively. As to `Cc1sc2c(c1C)C(c1ccc(NCC3CCCN(c4ncc(C(=O)N[C@H]5CC[C@H](Oc6ccc(C#N)c(Cl)c6)CC5)cn4)C3)cc1)=NC(Cc1ncco1)c1nnc(C)n1-2` (stereo partly drawn) [I-809], the GI50 in assay [1] (72 h) was over 3000 nM; in assay [2] (72 h), under 500 nM. The like results for `Cc1sc2c(c1C)C(c1ccc(NCCC3CCN(c4ncc(C(=O)N[C@H]5CC[C@H](Oc6ccc(C#N)c(Cl)c6)CC5)cn4)CC3)cc1)=NC(Cc1ncco1)c1nnc(C)n1-2` (stereo partly drawn) [I-811] were, in that order, under 500 nM and under 500 nM. Regarding `Cc1sc2c(c1C)C(c1ccc(N3CCCC4(CCN(c5ncc(C(=O)N[C@H]6CC[C@H](Oc7ccc(C#N)c(Cl)c7)CC6)cn5)CC4)C3)cc1)=NC(Cc1ncco1)c1nnc(C)n1-2` (stereo partly drawn) [I-812], the GI50 in assay [1] (72 h) is over 3000 nM; in assay [2] (72 h), under 500 nM. With `Cc1sc2c(c1C)C(c1ccc(N3C[C@H](F)C[C@@H](Nc4ncc(C(=O)N[C@H]5CC[C@H](Oc6ccc(C#N)c(Cl)c6)CC5)cn4)C3)cc1)=NC(Cc1ncco1)c1nnc(C)n1-2` (stereo partly drawn) [I-813], the 50% growth inhibitory concentration (GI50) in assay [1] (72 h) and in assay [2] (72 h) was under 500 nM in each case.

Turning to `Cc1sc2c(c1C)C(c1ccc(N3CCCN(CCCNc4ncc(C(=O)N[C@H]5CC[C@H](Oc6ccc(C#N)c(Cl)c6)CC5)cn4)CC3)cc1)=NC(Cc1ncco1)c1nnc(C)n1-2` (stereo partly drawn) [I-816], the figures for the 50% growth inhibitory concentration (GI50) in assay [1] (72 h) and in assay [2] (72 h) were over 3000 nM and under 500 nM, respectively. As to `Cc1sc2c(c1C)C(c1ccc(N3CCC(C)(CNc4ncc(C(=O)N[C@H]5CC[C@H](Oc6ccc(C#N)c(Cl)c6)CC5)cn4)CC3)cc1)=NC(Cc1ncco1)c1nnc(C)n1-2` (stereo partly drawn) [I-817], the GI50 in assay [1] (72 h) and in assay [2] (72 h) was under 500 nM in each case.

Turning to `Cc1sc2c(c1C)C(c1ccc(N3CCC4(CC3)CC(Nc3ncc(C(=O)N[C@H]5CC[C@H](Oc6ccc(C#N)c(Cl)c6)CC5)cn3)C4)cc1)=NC(Cc1ncco1)c1nnc(C)n1-2` (stereo partly drawn) [I-818], the concentration for 50% growth inhibition (GI50) in assay [1] (72 h) and in assay [2] (72 h) was under 500 nM each time. In the case of `Cc1sc2c(c1C)C(c1ccc(N3CCO[C@@H](CNc4ncc(C(=O)N[C@H]5CC[C@H](Oc6ccc(C#N)c(Cl)c6)CC5)cn4)C3)cc1)=NC(Cc1ncco1)c1nnc(C)n1-2` (stereo partly drawn) [I-819], the concentration for 50% growth inhibition (GI50) in assay [1] (72 h) and in assay [2] (72 h) was under 500 nM each time. `Cc1sc2c(c1C)C(c1ccc(N3CCN(c4ncc(C(=O)N[C@H]5CC[C@H](Oc6ccc(C#N)c(Cl)c6)CC5)cn4)CC(F)(F)C3)cc1)=NC(Cc1ncco1)c1nnc(C)n1-2` (stereo partly drawn) [I-820]: the concentration for 50% growth inhibition (GI50) in assay [1] (72 h) and in assay [2] (72 h) was under 500 nM in each case.
